These results are taken from patent US20110218100A1 (priority 2005, published 2011).

For one test, the system named is Penicillium brevicaule. The test is described as follows: Penicillium brevicaule test (in vitro)/microtest. It counts as cell-based. The note with it: 4 days incubation, optical density. The procedure: The microtest was performed in liquid medium with potato-dextrose broth (PDB) using microtitre plates.
The active compound is applied as the technical active substance dissolved in aceton.
A spore suspension of Penicillium brevicaule was used for inoculation. After 4 days of incubation by darkness under shaking (10 Hrz), the optical density in each cavity was evaluated with the aid of a microtitre plate reader.
0% means an efficacy which corresponds to that of the control, while an efficacy of 100% means that no fungal growth is observed.

The next test relates to Fusarium graminearum. It counts as in vivo. The note with it: barley, curative spray, 125 g/ha of each active compound, evaluation 7 days after inoculation.
For test [1], the system named is Erysiphe graminis f.sp. tritici. The test is described as follows: Erysiphe test (wheat)/curative. The note with it: curative spray, 125 g/ha of each active compound, evaluation 8 days after inoculation. It counts as in vivo. The protocol: (§1) Solvent: 50 parts by weight of N,N-dimethylacetamide Emulsifier: 1 part by weight of alkylaryl polyglycol ether
To produce a suitable preparation of active compound, 1 part by weight of active compound is mixed with the stated amounts of solvent and emulsifier, and the concentrate is diluted with water to the desired concentration.
To test for curative activity, young plants are sprayed with spores of Erysiphe graminis f.sp. tritici. 48 hours after the inoculation, the plants are sprayed with the preparation of active compound at the stated application rate. The plants are placed in a greenhouse at a temperature of about 20° C. and a relative atmospheric humidity of about 80% to promote the development of mildew pustules. Evaluation is carried out 8 days after the inoculation. What is determined is the efficacy in %. 0% means an efficacy which corresponds to that of the control, whereas an efficacy of 100% means that no infection is observed.

Another test has as its system Pyrenophora teres. Briefly: Pyrenophora teres (barley) test/curative. It counts as in vivo. The note with it: curative spray, 50 g/ha of each active compound, evaluation 8 days after inoculation. The protocol:
as §1
To produce a suitable preparation of active compound, 1 part by weight of active compound is mixed with the stated amounts of solvent and emulsifier, and the concentrate is diluted with water to the desired concentration or the active compound or a combination of active compounds in a commercially available formulation is diluted with water to the desired concentration.
To test for curative activity, young plants are sprayed with a conidia suspension of Pyrenophora teres. The plants remain for 48 hours in an incubation cabinet at 20° C. and a relative atmospheric humidity of 100% and are then sprayed with the preparation of active compound at the stated rate of application.
The plants are placed in a greenhouse at a temperature of approximately 20° C. and a relative atmospheric humidity of approximately 80%.
The test is evaluated 8 days after the inoculation.

The molecule `Cc1nn(C)c(F)c1C(=O)Nc1ccccc1C(C)CC(C)C` (centres unmarked) [(I-2), N-[2-(1,3-dimethylbutyl)phenyl]-5-fluoro-1,3-dimethyl-1H-pyrazole-4-carboxamide] registered an Efficacy in % in the test with Penicillium brevicaule (0.03 ppm) of 16%. For the same molecule, the “Efficacy in % found” value in the test on Fusarium graminearum is 42%; in test [1] it was 0%. Also, the “Efficacy in % (Act = actual efficacy)” value with Pyrenophora teres is given as 22%.

For the molecule `Cn1cc(C(=O)Nc2ccc(F)cc2-c2ccc(Cl)c(Cl)c2)c(C(F)F)n1` [(I-23), N-(3′,4′-dichloro-5-fluoro-1,1′-biphenyl-2-yl)-3-(difluoromethyl)-1-methyl-1H-pyrazole-4-carboxamide], the “Efficacy in % (Act = actual efficacy)” value in the test on Pyrenophora teres is 22%.

Turning to `OC(Cc1ccccc1Cl)(Cn1nc[nH]c1=S)C1(Cl)CC1` (centres unmarked) [(II-15), prothioconazole], the “Efficacy in % found” value with Fusarium graminearum stood at 58%; in test [1], 33%. Also, the “Efficacy in % (Act = actual efficacy)” value in the test with Pyrenophora teres came to 22%.

Regarding `CC(C)(C)C(O)(CCc1ccc(Cl)cc1)Cn1cncn1` (centres unmarked) [(II-17), tebuconazole], the “Efficacy in % (Act = actual efficacy)” value with Pyrenophora teres was determined as 22%.

In the test on Penicillium brevicaule (0.003 ppm), `CC(C)C1CCC(Cc2ccc(Cl)cc2)C1(O)Cn1cncn1` (centres unmarked) [(II-18), ipconazole] came in with an Efficacy in % of 8%.

`CO/N=C(/C1=NOCCO1)c1ccccc1Oc1ncnc(Oc2ccccc2Cl)c1F` [(III-2), fluoxastrobin]: the “Efficacy in % found” value with Fusarium graminearum is 50%; in test [1], 39%. Also, the “Efficacy in % (Act = actual efficacy)” value in the test on Pyrenophora teres is on record as 22%.

The molecule `CON=C(C(=O)OC)c1ccccc1CON=C(C)c1cccc(C(F)(F)F)c1` [(III-4), trifloxystrobin] came in with an Efficacy in % with Penicillium brevicaule (0.003 ppm) of 1%.
